Tests used:
Format in all cases: cell-based
[1] = test system: Jurkat human leukemia T cells; assay: Inhibition of Jurkat human leukemia T cell proliferation (MTT reduction); conditions: 100 μg/ml sequence, 48 h, 2.5×10^5 cells/ml
In short: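 Jurkat cells at 2.5×10^5 cells/ml exposed to 100 μg/ml of 2–45-base A/C/G/T sequences (0 μg/ml control) for 48 h, 37° C, 5% CO2. Viability by MTT reduction read at 570 nm.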

[2] = test system: Jurkat human leukemia T cells; assay: Apoptosis by phosphatidylserine/annexin V-FITC flow cytometry; conditions: 50 μM sequence
Description: (§1) The redistribution of phosphatidylserine in the plasma membrane during apoptosis was measured by flow cytometry using FITC-conjugated annexin V (BD Pharmingen, San Diego, Calif.). NuMA release into the supernatant was determined using a commercial ELISA kit (Oncogen/Calbiochem, Cambridge, Mass.).
Jurkat human leukemia T cells were incubated with 50 μM of 3, 4, 5, 6 and 7 GT base sequences, a 5 base ACGT sequence, 6 base AG, GG, AGT and CGT sequences and a 7 base GG sequence. […]
Jurkat human leukemia T cells were incubated with GT-rich or AC-rich sequences derived from the murA gene of Mycobacterium phlei (GenBank: Accession Number X99776). Inhibition of proliferation was measured by the reduction of MTT as in Example 3, cell cycle arrest was detected by flow cytometry using propidium iodide as in Example 21 and apoptosis was evaluated by flow cytometry using annexin-V-FITC as in Example 23.

[3] = test system: Jurkat human leukemia T cells; assay: NuMA release into supernatant (ELISA); conditions: Jurkat, 50 μM sequence
Description: as §1
Jurkat human leukemia T cells were incubated with 50 μM of 3, 4, 5, 6 and 7 GT base sequences, a 5 base ACGT sequence, 6 base AG, GG, AGT and CGT sequences and a 7 base GG sequence.
Jurkat human leukemia T cells (1×10^6/ml) were incubated with 6 and 27 GT base sequences (Table 32). NuMA was determined as in Example 23.
Jurkat human cell leukemia T cells were incubated for 24 h with 6 base GT SEQ ID NO:25, complementary 6 base AC SEQ ID NO:79, and 6 base GT SEQ ID NO:25+6 base AC SEQ ID NO:79. GT SEQ ID NO:25 and AC SEQ ID NO:79 were hybridized by mixing the sequences (1:1) and heating for 10 minutes at 65° C. As controls, GT SEQ ID NO:25 and AC SEQ ID NO:79 were heated for 10 minutes at 65° C. (Table 33). Apoptosis was evaluated as in Example 23.

[4] = test system: THP-1 human acute monocytic leukemia cells; assay: Cytokine production by THP-1 cells (ELISA); conditions: THP-1, 1×10^6 cells, 100 μg/ml, 48 h; for ↑ IL-12 (fold increase treated vs control cells): p70 complex and free p40
In short: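 1×10^6 cells exposed to 100 μg/ml of each oligonucleotide sequence for 48 h at 37° C in 5% CO2, unless stated otherwise. Cytokines quantified in culture supernatant by ELISA, IL-12 assay detecting both p70 and free p40; values are fold increase over untreated control cells.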

[5] = test system: human peripheral blood mononuclear cells; assay: Cytokine production by human PBMC (ELISA); conditions: PBMC of 7 healthy humans, 100 μg/ml, 48 h
Description: (§2) Unless stated otherwise, 1×10^6 cells were incubated with 100 μg/ml of each of the sequences tested for 48 h at 37° C. in 5% CO2. Production of cytokines IL-6, IL-10, IL-12, IL-1beta and TNF-alpha was determined in pg/ml in 100 μl of culture supernatant using the appropriate commercial ELISA (BioSource, Camarillo Calif.). The IL-12 ELISA measures both IL-12 p70 complex and free p40 subunit. Results are expressed as the “fold” (×) increase in cytokine production by treated cells compared to control cells.
Peripheral blood mononuclear cells (hereinafter, “PBMCs”) were isolated from 7 healthy humans by Ficoll-Hypaque (Amersham Pharmacia Biotech, Baie d'Urfée, Québec, Canada) by density gradient centrifugation of whole blood. PBMCs were incubated with 6 base GT, AGT, CGT, AG, CG and GG sequences and production of the cytokines IL-1beta, IL-6, IL-10 and IL-12 were determined.

chimpanzee PBMCs = assay: Cytokine production by chimpanzee PBMC (ELISA); conditions: PBMC of 4 healthy chimpanzees, 100 μg/ml, 48 h
Description: as §2
PBMCs were isolated from 4 healthy chimpanzees as in Example 35. Chimpanzee PBMCs were incubated with 6 base GT, AGT, CGT, AG, CG and GG sequences and production of the cytokines IL-10, IL-12 and TNF-alpha was determined (Table 41).

rhesus monkey PBMCs = assay: Cytokine production by rhesus monkey PBMC (ELISA); conditions: PBMC of 4 healthy rhesus monkeys, 100 μg/ml, 48 h
Description: as §2
PBMCs were isolated from 4 healthy rhesus monkeys as in Example 35. PBMCs were incubated with 6 base GT, AGT, CGT, AG, CG ands GG sequences and production of the cytokines IL-6, IL-12 and TNF-alpha was determined (Table 42).

Sequence | % INHIBITION of Jurkat human leukemia T cell proliferation [1] [%] | % of cells in apoptosis (positive for PS/A-V staining) [2] [%] | % NuMA released (treated vs untreated cells) [3] [%] | ↑ IL-6 (fold increase treated vs control cells) [4] [x] | ↑ IL-12 (fold increase treated vs control cells) [4] [x] | IL-1 beta fold increase: mean +/− SD [5] | IL-6 fold increase: mean +/− SD [5] | IL-10 fold increase: mean +/− SD [5] | IL-12 fold increase: mean +/− SD [5] | IL-10 fold increase: mean +/− SD (chimpanzee PBMCs) | IL-12 fold increase: mean +/− SD (chimpanzee PBMCs) | TNF-alpha fold increase: mean +/− SD (chimpanzee PBMCs) | IL-10 fold increase: mean +/− SD (rhesus monkey PBMCs) | IL-12 fold increase: mean +/− SD (rhesus monkey PBMCs) | TNF-alpha fold increase: mean +/− SD (rhesus monkey PBMCs)
AAGTAA [SEQ ID NO:27] | 13 | 20 | 56 | 12.8 | 6.0 | 1.3 +/− 0.5 fold increase | 9.6 +/− 7.3 fold increase | 1.0 +/− 0.1 fold increase | 2.4 +/− 2.2 fold increase | 2.1 +/− 1.1 fold increase | 13.2 +/− 8.2 fold increase | 7.9 +/− 3.9 fold increase | 0.9 +/− 0.1 fold increase | 7.6 +/− 2.6 fold increase | 6.0 +/− 5.0 fold increase
CCGTCC [SEQ ID NO:28] | 11 | 6 | 0 | 12.6 | 3.8 | 2.1 +/− 1.8 fold increase | 10.4 +/− 13.0 fold increase | 1.0 +/− 0.1 fold increase | 5.9 +/− 10.7 fold increase | 3.8 +/− 2.8 fold increase | 13.3 +/− 8.4 fold increase | 10.3 +/− 5.7 fold increase | 1.1 +/− 0.2 fold increase | 10.1 +/− 3.7 fold increase | 14.2 +/− 3.7 fold increase
GGGCGG (unmodified DNA) [SEQ ID NO:46] | 23 | 16 | 11 | 9.8 | 2.3 | 1.2 +/− 0.3 fold increase | 15.8 +/− 16.2 fold increase | 1.0 +/− 0.1 fold increase | 3.0 +/− 3.8 fold increase | 4.7 +/− 3.4 fold increase | 15.8 +/− 10.4 fold increase | 14.1 +/− 6.6 fold increase | 1.2 +/− 0.2 fold increase | 11.0 +/− 4.4 fold increase | 16.8 +/− 4.1 fold increase
GGGGGG [SEQ ID NO:44] | 26 | 5 | 0 | 15.1 | 0.0 | 7.1 +/− 9.4 fold increase | 21.0 +/− 14.7 fold increase | 1.7 +/− 1.6 fold increase | 7.0 +/− 12.5 fold increase | 11.2 +/− 9.1 fold increase | 15.1 +/− 10.0 fold increase | 13.8 +/− 6.5 fold increase | 2.1 +/− 1.0 fold increase | 10.7 +/− 5.6 fold increase | 13.9 +/− 8.5 fold increase
